Assay results published in PubChem BioAssay (NCI).
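A five-concentration, 48-hour dose response in 96-well plates underlies each endpoint, interpolated linearly between surrounding concentrations. At the GI50, growth is halved. Definition used: TGI = concentration required for complete inhibition of growth.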

Columns and labels:
Assay in all cases: NCI-60 cell line screen, 48 h
786-0 renal = test system: 786-0 renal
A549 NSCLC = test system: A549 NSCLC
ACHN renal = test system: ACHN renal
BT-549 breast = test system: BT-549 breast
CAKI-1 renal = test system: CAKI-1 renal
CCRF-CEM leukemia = test system: CCRF-CEM leukemia
COLO 205 colon = test system: COLO 205 colon
DU-145 prostate = test system: DU-145 prostate
EKVX NSCLC = test system: EKVX NSCLC
HCT-15 colon = test system: HCT-15 colon
HL-60(TB) leukemia = test system: HL-60(TB) leukemia
HOP-62 NSCLC = test system: HOP-62 NSCLC
HOP-92 NSCLC = test system: HOP-92 NSCLC
HS 578T breast = test system: HS 578T breast
HT29 colon = test system: HT29 colon
IGROV1 ovarian = test system: IGROV1 ovarian
K-562 leukemia = test system: K-562 leukemia
KM12 colon = test system: KM12 colon
LOX IMVI melanoma = test system: LOX IMVI melanoma
M14 melanoma = test system: M14 melanoma
MALME-3M melanoma = test system: MALME-3M melanoma
MDA-MB-231 breast = test system: MDA-MB-231 breast
MDA-MB-435 = test system: MDA-MB-435
MOLT-4 leukemia = test system: MOLT-4 leukemia
NCI-H226 lung = test system: NCI-H226 lung
NCI-H23 lung = test system: NCI-H23 lung
NCI-H460 lung = test system: NCI-H460 lung
NCI-H522 lung = test system: NCI-H522 lung
NCI/ADR-RES ovarian = test system: NCI/ADR-RES ovarian
OVCAR-3 ovarian = test system: OVCAR-3 ovarian
OVCAR-4 ovarian = test system: OVCAR-4 ovarian
OVCAR-5 ovarian = test system: OVCAR-5 ovarian
OVCAR-8 ovarian = test system: OVCAR-8 ovarian
PC-3 prostate = test system: PC-3 prostate
RPMI-8226 leukemia = test system: RPMI-8226 leukemia
RXF 393 renal = test system: RXF 393 renal
SF-268 CNS = test system: SF-268 CNS
SF-295 CNS = test system: SF-295 CNS
SF-539 CNS = test system: SF-539 CNS
SK-MEL-2 melanoma = test system: SK-MEL-2 melanoma
SK-MEL-28 melanoma = test system: SK-MEL-28 melanoma
SK-MEL-5 melanoma = test system: SK-MEL-5 melanoma
SK-OV-3 ovarian = test system: SK-OV-3 ovarian
SN12C renal = test system: SN12C renal
SNB-19 CNS = test system: SNB-19 CNS
SNB-75 CNS = test system: SNB-75 CNS
SR leukemia = test system: SR leukemia
SW-620 colon = test system: SW-620 colon
T-47D breast = test system: T-47D breast
TK-10 renal = test system: TK-10 renal
U251 CNS = test system: U251 CNS
UACC-62 melanoma = test system: UACC-62 melanoma
UO-31 renal = test system: UO-31 renal

## COc1ccc(C(=S)N(C)NC(=O)CC(=O)NN(C)C(=S)c2ccc(OC)cc2)cc1
786-0 renal
  GI50: 58.5 µM
  TGI: > 100 µM
A549 NSCLC
  GI50: 24.5 µM
  TGI: > 100 µM
ACHN renal
  GI50: 50.7 µM
  TGI: > 100 µM
BT-549 breast
  GI50: 50.3 µM
  TGI: > 100 µM
CAKI-1 renal
  GI50: 31.8 µM
  TGI: > 100 µM
CCRF-CEM leukemia
  GI50: 23.4 µM
  TGI: > 100 µM
COLO 205 colon
  GI50: 12.8 µM
  TGI: 70.8 µM
DU-145 prostate
  GI50: 46.9 µM
  TGI: > 100 µM
EKVX NSCLC
  GI50: 32 µM
  TGI: > 100 µM
HCT-15 colon
  GI50: 17.6 µM
  TGI: > 100 µM
HL-60(TB) leukemia
  GI50: > 100 µM
  TGI: > 100 µM
HOP-62 NSCLC
  GI50: > 100 µM
  TGI: > 100 µM
HOP-92 NSCLC
  GI50: 0.283 µM
  TGI: > 100 µM
HS 578T breast
  GI50: 24.4 µM
  TGI: 82.6 µM
HT29 colon
  GI50: 39.1 µM
  TGI: > 100 µM
IGROV1 ovarian
  GI50: 54.4 µM
  TGI: > 100 µM
K-562 leukemia
  GI50: 59.4 µM
  TGI: > 100 µM
KM12 colon
  GI50: 62.7 µM
  TGI: > 100 µM
LOX IMVI melanoma
  GI50: 28.9 µM
  TGI: > 100 µM
M14 melanoma
  GI50: 33.5 µM
  TGI: > 100 µM
MALME-3M melanoma
  GI50: 52.3 µM
  TGI: > 100 µM
MDA-MB-231 breast
  GI50: > 100 µM
  TGI: > 100 µM
MDA-MB-435
  GI50: 59.9 µM
  TGI: > 100 µM
MOLT-4 leukemia
  GI50: > 100 µM
  TGI: > 100 µM
NCI-H226 lung
  GI50: 49.8 µM
  TGI: > 100 µM
NCI-H23 lung
  GI50: 46.6 µM
  TGI: > 100 µM
NCI-H460 lung
  GI50: 18.1 µM
  TGI: > 100 µM
NCI-H522 lung
  GI50: 45.9 µM
  TGI: > 100 µM
NCI/ADR-RES ovarian
  GI50: 29.1 µM
  TGI: > 100 µM
OVCAR-3 ovarian
  GI50: 36.5 µM
  TGI: > 100 µM
OVCAR-4 ovarian
  GI50: 31.7 µM
  TGI: > 100 µM
OVCAR-5 ovarian
  GI50: 76.3 µM
  TGI: > 100 µM
OVCAR-8 ovarian
  GI50: 38.9 µM
  TGI: > 100 µM
PC-3 prostate
  GI50: 26.1 µM
  TGI: > 100 µM
RPMI-8226 leukemia
  GI50: 0.0119 µM
  TGI: > 100 µM
RXF 393 renal
  GI50: 40.4 µM
  TGI: 92.3 µM
SF-268 CNS
  GI50: 43.2 µM
  TGI: > 100 µM
SF-295 CNS
  GI50: 1.63 µM
  TGI: 39 µM
SF-539 CNS
  GI50: 51.9 µM
  TGI: > 100 µM
SK-MEL-2 melanoma
  GI50: 79.6 µM
  TGI: > 100 µM
SK-MEL-28 melanoma
  GI50: 42.6 µM
  TGI: > 100 µM
SK-MEL-5 melanoma
  GI50: 36.2 µM
  TGI: > 100 µM
SK-OV-3 ovarian
  GI50: > 100 µM
  TGI: > 100 µM
SN12C renal
  GI50: 98 µM
  TGI: > 100 µM
SNB-19 CNS
  GI50: > 100 µM
  TGI: > 100 µM
SNB-75 CNS
  GI50: > 100 µM
  TGI: > 100 µM
SR leukemia
  GI50: > 100 µM
  TGI: > 100 µM
SW-620 colon
  GI50: 33.3 µM
  TGI: > 100 µM
T-47D breast
  GI50: 58.6 µM
  TGI: > 100 µM
TK-10 renal
  GI50: 67 µM
  TGI: > 100 µM
U251 CNS
  GI50: 45.8 µM
  TGI: > 100 µM
UACC-62 melanoma
  GI50: 37 µM
  TGI: > 100 µM
UO-31 renal
  GI50: 24.9 µM
  TGI: > 100 µM
